The source of these data is patent US8992892B2, “Use of 1-(2,4-dihydroxy-phenyl)-3-(3-hydroxy-4-methoxy-phenyl)-propan-1-one” (SYMRISE AG, priority 2010, dated 2015).

Format in all cases: in vivo
Experiment [1] is described as follows: Bitter reduction of a caffeine solution, rated by a group of experts. The text has this:
In order to quantify the decrease (i.e. the masking or reduction) in bitter impression in a specimen, the bitterness of a 500 ppm caffeinated solution was compared by a group of experts in each case with a specimen containing 500 ppm caffeine and also various concentrations of deoxy hesperetin dihydrochalcone (I) (rating: 1 [not bitter] to 10 [extremely bitter]).
For the assessment, i.e. calculation of the reduction (in %) of the bitter impression in each case the average values of the assessments of the group of experts for the caffeinated solution and the specimen to be compared containing caffeine and a substance to be assessed were used. 2,4-dihydroxybenzoic acid (2,4-DHB) was used here for comparison (reference) in accordance with U.S. Pat. No. 5,643,941.

A short description of experiment [2]: Bitter reduction of a naringin solution, rated by a group of experts. Particulars: 100 ppm naringin + 50 ppm (I). The text has this:
(§1) In order to quantify the decrease (i.e. the masking or reduction) in the bitter impression in a specimen, the bitterness of a solution containing either 100 ppm naringin or 250 ppm salicin or 500 ppm epigallocatechin gallate and 75 ppm ascorbic acid was compared by a group of experts in each case with a specimen containing either 100 ppm naringin or 250 ppm salicin or 500 ppm epigallocatechin gallate and 75 ppm ascorbic acid and additionally 50 ppm deoxy hesperetin dihydrochalcone (I) (rating: 1 [not bitter] to 10 [extremely bitter]).
(§2) For the assessment, i.e. calculation of the reduction (in %) of the bitter impression in each case the average values of the assessments of the group of experts for the respective bitter substance solution and the bitter substance solution also containing 50 ppm deoxy hesperetin dihydrochalcone (I) were used.

Experiment [3] is described as follows: Bitter reduction of a salicin solution, rated by a group of experts. To be noted: 250 ppm salicin + 50 ppm (I).
From the text: as §1, §2

The nature of experiment [4]: Bitter reduction of an epigallocatechin gallate solution, rated by a group of experts. To be noted: 500 ppm epigallocatechin gallate + 75 ppm ascorbic acid + 50 ppm (I).
From the text: as §1, §2

Experiment [5] in a line: Intensification of the sweet impression of a sugar solution, rated by a group of experts. Also noted: key to Sweet impression (1-10) Specimen (Sucrose + (I)) / Sweet impression (1-10) Specimen (sucrose + substance): 1 = not sweet, 10 = extremely sweet. From the text:
In order to quantify the intensification of the sweet impression, in each case the sweetness of a 5% sucrose solution was compared by a group of experts with a specimen containing 5% sucrose and 10 ppm, 25 ppm, 50 ppm or 75 ppm of the deoxy hesperetin dihydrochalcone (I) to be used according to the invention (rating: 1 [not sweet] to 10 [extremely sweet]).
For the assessment, i.e. calculation of the intensification (in %) of the sweet impression in each case the average values of the assessments of the group of experts for the sucrose solution and the specimen for comparison containing sucrose and deoxy hesperetin dihydrochalcone (I) were used.
In order to quantify the intensification of the sweetness impression, in each case the sweetness of a 5% sucrose solution was compared by a group of experts with a specimen containing 5% sucrose and 30 ppm or 50 ppm of a deoxy dihydrochalcone ((rating: 1 [not sweet] to 10 [extremely sweet])).
For the assessment, i.e. calculation of the intensification (in %) of the sweet impression in each case the average values of the assessments of the group of experts for the sucrose solution and the specimen containing sucrose and deoxy dihydrochalcone for comparison were used.

Experiment [6] can be described thus: Inherent sweetness in water against a sucrose concentration series (sucrose equivalence), panelists. The text has this:
(§3) The panelists were asked to test each solution of the compound (I) in water against the sucrose series and to rate it according is degree of sweetness (sucrose equivalence). From the results produced by the panelists it was possible to determine the inherent sweetness of the deoxy hesperetin dihydrochalcone (I) for the above-mentioned concentrations. Apart from the sucrose equivalence of the solutions of the compound (I) in water (i.e. without sucrose) the sucrose equivalence in a 5% sucrose solution was also determined with a corresponding quantity of compound (I).

A short description of experiment [7]: Sucrose equivalence in a 5% sucrose solution with (I), panelists. To be noted: for Sucrose equivalence in a 5% sucrose solution with (I), Calculation (5 + x) %: purely additive expected value; for synergy or synergistic additional effect: determined vs theoretically expected value.
From the text: as §3
In all the cases tested a synergistic intensification in sweetness was found when an in itself not sweet concentration of deoxy hesperetin dihydrochalcone (I) was added. So it could in theory be expected that a 5% sucrose solution (i.e. a sucrose solution which sensorially by definition corresponds to 5% sucrose equivalents), containing 10 ppm, 25 ppm, 50 ppm or 75 ppm deoxy hesperetin dihydrochalcone (I), through a purely additive effect of the inherent sweetness of deoxy hesperetin dihydrochalcone (I) (see the sucrose equivalence determined in water) results in a sweetness of approximately 5.13%, 5.33%, 5.58% and again 5.58% sucrose equivalents. […] This corresponds in view of the purely theoretically expected values to a synergy or a synergistic additional effect of approximately 25%, 29%, 47% or 27%. It is noticeable that at the maximum tested concentration of 75 ppm—as might be expected—neither the maximum absolute nor the maximum synergistic intensification was measured.

Assay in experiment [8]: as above
Particulars: 0.0100 % by weight (I); purely additive expected value.

Where [9] appears, read: 100 ppm substance + 500 ppm caffeine vs caffeinated solution.
Where [10] appears, read: 100 ppm substance + 500 ppm caffeine, rating 1 [not bitter] to 10 [extremely bitter].
[11] abbreviates: Application example 4: 50 ppm deoxy dihydrochalcone + 5% sucrose vs sucrose solution.
[12] abbreviates: Application example 4: 50 ppm deoxy dihydrochalcone + 5% sucrose, rating 1-10.

As to `COc1ccc(CCC(=O)c2ccc(O)cc2O)cc1O` [deoxy hesperetin dihydrochalcone (I), 1-(2,4-dihydroxy-phenyl)-3-(3-hydroxy-4-methoxy-phenyl)-propan-1-one], the “Reduction in bitter impression” value in experiment [1] (10 ppm substance + 500 ppm caffeine vs caffeinated solution) was found to be 2%; in experiment [1] (25 ppm substance + 500 ppm caffeine vs caffeinated solution), 26%; in experiment [1] (50 ppm substance + 500 ppm caffeine vs caffeinated solution), 11%; in experiment [1] (setting [9]), 3%; in experiment [2], 7%; in experiment [3], 15%. Further, the “Reduction in bitter impression” value in experiment [4] was determined as 10%. Also, the “Bitter impression (1-10) Specimen (Caffeine + substance)” value in experiment [1] (10 ppm substance + 500 ppm caffeine, rating 1-10) is on record as 4.8 ± 1.6; in experiment [1] (25 ppm substance + 500 ppm caffeine, rating 1-10), 3.8 ± 1.5; in experiment [1] (50 ppm substance + 500 ppm caffeine, rating 1-10) it was 3.7 ± 1.6; in experiment [1] (setting [10]) it was 4.9 ± 1.9. For the same compound, the “Bitter impression (1-10) Bitter substance + (I)” value in experiment [2] (rating 1-10) came to 6.4 ± 2.4; in experiment [3] (rating 1-10), 6.5 ± 2.2; in experiment [4] (rating 1-10) it was 6.1 ± 2.9. For the same compound, the “Intensification of the sweet impression” value worked out at 21% in experiment [5] (10 ppm (I) + 5% sucrose vs sucrose solution), 42% in experiment [5] (25 ppm (I) + 5% sucrose vs sucrose solution), 48% in experiment [5] (50 ppm (I) + 5% sucrose vs sucrose solution) and 21% in experiment [5] (75 ppm (I) + 5% sucrose vs sucrose solution). Moreover, the “Sweet impression (1-10) Specimen (Sucrose + (I))” value in experiment [5] (10 ppm (I) + 5% sucrose, rating 1 [not sweet] to 10 [extremely sweet]) came out at 6.4 ± 1.6; in experiment [5] (25 ppm (I) + 5% sucrose, rating 1-10), 6.9 ± 1.9; in experiment [5] (50 ppm (I) + 5% sucrose, rating 1-10) it was 8.2 ± 0.9; in experiment [5] (75 ppm (I) + 5% sucrose, rating 1-10), 7.1 ± 1.7. For the same compound, the “Intensification of the sweet effect” value in experiment [5] (setting [11]) is 48%. Moreover, the “Sweet impression (1-10) Specimen (sucrose + substance)” value in experiment [5] (setting [12]) is given as 8.2 ± 0.9. In addition, the sweetness-intensifying effect result in experiment [5] (own investigations) was “strong, sweetness-intensifying effect”. In addition, in experiment [5] (see Application example 4), the “sweetness intensifying effect compared with structurally related substances (1)-(3)” value is given as “clearly the most powerful compound”. The “Determination of the sucrose equivalence in water (without sucrose)” value in experiment [6] (0.0010 % by weight (I) in water) stood at 0.13%; in experiment [6] (0.0025 % by weight (I) in water) it was 0.33%; in experiment [6] (0.0050 % by weight (I) in water), 0.58%; in experiment [6] (0.0075 % by weight (I) in water), 0.58%; in experiment [6] (0.0100 % by weight (I) in water), 0.79%. Also, in experiment [6] (own investigations), the “own sweetness of the compound” value is given as “not in itself particularly sweet”. Besides, the “Sucrose equivalence in a 5% sucrose solution with (I), Determination” value in experiment [7] (0.0010 % by weight (10 ppm) (I) in 5% sucrose) was found to be 6.4%; in experiment [7] (0.0025 % by weight (25 ppm) (I) in 5% sucrose) it was 6.9%; in experiment [7] (0.0050 % by weight (50 ppm) (I) in 5% sucrose), 8.2%; in experiment [7] (0.0075 % by weight (75 ppm) (I) in 5% sucrose), 7.1%. The “Sucrose equivalence in a 5% sucrose solution with (I), Calculation (5 + x) %” value in experiment [7] (0.0025 % by weight (25 ppm) (I)) is on record as 5.33%; in experiment [7] (0.0050 % by weight (50 ppm) (I)), 5.58%; in experiment [7] (0.0075 % by weight (75 ppm) (I)) it was 5.58%; in experiment [8], 5.79%. Also, the “synergy or synergistic additional effect” value in experiment [7] (10 ppm (I) in 5% sucrose) is listed as “approximately 25%”; in experiment [7] (25 ppm (I) in 5% sucrose) it was approximately 29%; in experiment [7] (50 ppm (I) in 5% sucrose), approximately 47%; in experiment [7] (75 ppm (I) in 5% sucrose), approximately 27%.

As to `COc1cc(CCC(=O)c2ccc(O)cc2O)ccc1O` [2′,4,4′-trihydroxy-3-methoxy dihydrochalcone, reference compound], in experiment [5] (setting [11]), the “Intensification of the sweet effect” value is 8%. Also, in experiment [5] (setting [12]), the “Sweet impression (1-10) Specimen (sucrose + substance)” value is reported as 5.6 ± 1.4.

Consider `COc1ccc(CCC(=O)c2ccc(O)cc2O)cc1` [reference compound], for which, in experiment [5] (setting [11]), the “Intensification of the sweet effect” value was 12%. Moreover, the “Sweet impression (1-10) Specimen (sucrose + substance)” value in experiment [5] (setting [12]) turned out to be 6.1 ± 1.8.

As for `O=C(CCc1ccc(O)cc1)c1ccc(O)cc1O` [davidigenin (1), davidigenin, reference compound], the “Intensification of the sweet effect” value in experiment [5] (Application example 4: 30 ppm deoxy dihydrochalcone + 5% sucrose vs sucrose solution) came to 2%. Further, the “Sweet impression (1-10) Specimen (sucrose + substance)” value in experiment [5] (Application example 4: 30 ppm deoxy dihydrochalcone + 5% sucrose, rating 1-10) came out at 5.7 ± 1.4.

On to `O=C(O)c1ccc(O)cc1O` [2,4-DHB, 2,4-dihydroxybenzoic acid, reference compound], for which the “Reduction in bitter impression” value in experiment [1] (setting [9]) was 3%. For the same compound, in experiment [1] (setting [10]), the “Bitter impression (1-10) Specimen (Caffeine + substance)” value was 5.0 ± 1.0.
